Biological target: CDK4/Cyclin D1 (Homo sapiens (Human), UniProt P11802)
Assay: CDK4/Cyclin D1 biochemical assay (TR-FRET)
Conditions: 1 mM ATP, 0.15 μM Rb (Ser780)-biotin substrate

Chain of CDK4/Cyclin D1 (P11802 whole entry): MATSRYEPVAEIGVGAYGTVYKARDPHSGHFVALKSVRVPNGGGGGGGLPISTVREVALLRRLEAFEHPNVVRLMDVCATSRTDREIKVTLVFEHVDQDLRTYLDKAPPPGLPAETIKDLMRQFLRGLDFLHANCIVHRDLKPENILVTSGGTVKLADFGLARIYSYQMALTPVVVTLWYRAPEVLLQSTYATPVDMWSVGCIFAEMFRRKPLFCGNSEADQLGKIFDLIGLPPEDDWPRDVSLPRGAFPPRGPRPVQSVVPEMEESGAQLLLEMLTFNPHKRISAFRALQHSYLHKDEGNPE
Chain of CDK4/Cyclin D1 (P24385 whole entry partner): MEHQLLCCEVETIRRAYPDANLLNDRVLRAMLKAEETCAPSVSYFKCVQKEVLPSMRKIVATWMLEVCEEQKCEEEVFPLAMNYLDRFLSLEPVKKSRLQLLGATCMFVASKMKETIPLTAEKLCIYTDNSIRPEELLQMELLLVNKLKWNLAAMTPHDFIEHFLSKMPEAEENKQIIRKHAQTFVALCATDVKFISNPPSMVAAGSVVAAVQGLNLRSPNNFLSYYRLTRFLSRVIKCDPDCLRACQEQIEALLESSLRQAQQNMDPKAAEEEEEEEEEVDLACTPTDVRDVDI

| IC50 | Compound |
| --- | --- |
| 68 nM | CN(C)C(=O)c1cc2cnc(N[C@@H]3CCOC[C@H]3O)nc2n1C1CCCC1 [Example 1, 7-cyclopentyl-2-(((3S,4R)-3-hydroxytetrahydro-2H-pyran-4-yl)amino)-N,N-dimethyl-7H-pyrrolo[2,3-d]pyrimidine-6-carboxamide] |
| 8.8 nM | CC(=O)c1c(C)c2cnc(N[C@@H]3CCOC[C@H]3O)nc2n(C2CCCC2)c1=O [Example 2 in WO2020212865, reference compound] |
| 360 nM | Cc1ccc(-n2c(C(=O)N(C)C)cc3cnc(N[C@@H]4CCOC[C@H]4O)nc32)cc1 [Example 2, 2-(((3S,4R)-3-hydroxytetrahydro-2H-pyran-4-yl)amino)-N,N-dimethyl-7-(p-tolyl)-7H-pyrrolo[2,3-d]pyrimidine-6-carboxamide] |
| 72 nM | CN(C)Cc1ccc(-n2c(C(=O)N(C)C)cc3cnc(N[C@@H]4CCOC[C@H]4O)nc32)cc1 [Example 3, 7-(4-((dimethylamino)methyl)phenyl)-2-(((3S,4R)-3-hydroxytetrahydro-2H-pyran-4-yl)amino)-N,N-dimethyl-7H-pyrrolo[2,3-d]pyrimidine-6-carboxamide] |
| 9.7 nM | CN(C)Cc1ccc(-n2c(C(=O)N(C)C)cc3cnc(N[C@@H]4CCOC[C@H]4O)nc32)cc1C1CC1 [Example 4, 7-(3-cyclopropyl-4-((dimethylamino)methyl)phenyl)-2-(((3S,4R)-3-hydroxytetrahydro-2H-pyran-4-yl)amino)-N,N-dimethyl-7H-pyrrolo[2,3-d]pyrimidine-6-carboxamide] |
| 51 nM | CN(C)Cc1ccc(-n2c(C(=O)N(C)C)cc3cnc(N[C@@H]4CCOC[C@H]4O)nc32)cc1F [Example 5, 7-(4-((dimethylamino)methyl)-3-fluorophenyl)-2-(((3S,4R)-3-hydroxytetrahydro-2H-pyran-4-yl)amino)-N,N-dimethyl-7H-pyrrolo[2,3-d]pyrimidine-6-carboxamide] |
| 22 nM | CN(C)Cc1ccc(-n2c(C(=O)N(C)C)cc3cnc(N[C@@H]4CCOC[C@H]4O)nc32)cc1Cl [Example 6, 7-(3-chloro-4-((dimethylamino)methyl)phenyl)-2-(((3S,4R)-3-hydroxytetrahydro-2H-pyran-4-yl)amino)-N,N-dimethyl-7H-pyrrolo[2,3-d]pyrimidine-6-carboxamide] |
| 5.9 nM | CN(C)Cc1ccc(-n2c(C(=O)N(C)C)cc3cnc(N[C@@H]4CCOC[C@H]4O)nc32)cc1C(F)(F)F [Example 7, 7-(4-((dimethylamino)methyl)-3-(trifluoromethyl)phenyl)-2-(((3S,4R)-3-hydroxytetrahydro-2H-pyran-4-yl)amino)-N,N-dimethyl-7H-pyrrolo[2,3-d]pyrimidine-6-carboxamide] |
| 143 nM | CN1CCc2cc(-n3c(C(=O)N(C)C)cc4cnc(N[C@@H]5CCOC[C@H]5O)nc43)ccc2C1 [Example 8, 2-(((3S,4R)-3-hydroxytetrahydro-2H-pyran-4-yl)amino)-N,N-dimethyl-7-(2-methyl-1,2,3,4-tetrahydroisoquinolin-6-yl)-7H-pyrrolo[2,3-d]pyrimidine-6-carboxamide] |
| 12 nM | CN(C)C(=O)c1cc2cnc(N[C@@H]3CCOC[C@H]3O)nc2n1-c1ccc2c(c1)CCCC2N(C)C (stereo partly drawn) [Example 9, 7-(5-(dimethylamino)-5,6,7,8-tetrahydronaphthalen-2-yl)-2-(((3S,4R)-3-hydroxytetrahydro-2H-pyran-4-yl)amino)-N,N-dimethyl-7H-pyrrolo[2,3-d]pyrimidine-6-carboxamide] |
| 13 nM | CN(C)C(=O)c1cc2cnc(N[C@@H]3CCOC[C@H]3O)nc2n1-c1ccc2c(c1)C1(CCC2N(C)C)CC1 (stereo partly drawn) [Example 10, 7-(4′-(dimethylamino)-3′,4′-dihydro-2′H-spiro[cyclopropane-1,1′-naphthalen]-7′-yl)-2-(((3S,4R)-3-hydroxytetrahydro-2H-pyran-4-yl)amino)-N,N-dimethyl-7H-pyrrolo[2,3-d]pyrimidine-6-carboxamide] |
| 2.1 nM | CN(C)C(=O)c1cc2cnc(N[C@@H]3CCOC[C@H]3O)nc2n1-c1ccc2c(c1)C(F)(F)CCC2N(C)C (stereo partly drawn) [Example 11, 7-(5-(dimethylamino)-8,8-difluoro-5,6,7,8-tetrahydronaphthalen-2-yl)-2-(((3S,4R)-3-hydroxytetrahydro-2H-pyran-4-yl)amino)-N,N-dimethyl-7H-pyrrolo[2,3-d]pyrimidine-6-carboxamide] |
| 42 nM | CN(C)C(=O)c1cc2cnc(N[C@@H]3CCOC[C@H]3O)nc2n1-c1ccc2c(c1)CCC2N(C)C (stereo partly drawn) [Example 12, 7-(1-(dimethylamino)-2,3-dihydro-1H-inden-5-yl)-2-(((3S,4R)-3-hydroxytetrahydro-2H-pyran-4-yl)amino)-N,N-dimethyl-7H-pyrrolo[2,3-d]pyrimidine-6-carboxamide] |
| 38 nM | CN(C)C(=O)c1cc2cnc(N[C@@H]3CCOC[C@H]3O)nc2n1-c1ccc2c(c1)C1(CC1)CC2N(C)C (stereo partly drawn) [Example 13, 7-(3′-(dimethylamino)-2′,3′-dihydrospiro[cyclopropane-1,1′-inden]-6′-yl)-2-(((3S,4R)-3-hydroxytetrahydro-2H-pyran-4-yl)amino)-N,N-dimethyl-7H-pyrrolo[2,3-d]pyrimidine-6-carboxamide] |
| 5 nM | CC(C)n1c(C(C)(C)O)nc2c(F)cc(-c3nc(N[C@@H]4CCOC[C@H]4O)ncc3Cl)cc21 [Example A94 in WO2019207463, reference compound] |
